According to the NIST ThermoML archive (doi:10.1016/j.jct.2010.11.017):
Numbers after ± are expanded uncertainties.

What was measured:
[1] = mn = molality of the nth substance listed, in mol/kg; settings: 101 kPa, Liquid, m2 = 0; for viscosity: Capillary tube (Ostwald / Ubbelohde) method; for speed of sound: Frequency=3 MHz, Linear variable-path acoustic interferometer
[2] = wn = mass fraction of the nth substance listed; settings: 101 kPa, Liquid, w2 = 0; for viscosity: Capillary tube (Ostwald / Ubbelohde) method; for speed of sound: Frequency=3 MHz, Linear variable-path acoustic interferometer

O [water] + N[C@@H](Cc1c[nH]cn1)C(=O)O
[1]
Settings	speed of sound [m/s]	viscosity [mPa·s]
293.15 K	1483.6 ± 10	1.002 ± 0.1
298.15 K	–	0.8903 ± 0.089
303.15 K	1508.4 ± 10	0.7973 ± 0.08
308.15 K	–	0.719 ± 0.072
313.15 K	1526.8 ± 10	0.6526 ± 0.065
318.15 K	1533 ± 10	0.5972 ± 0.06

Settings	mass density [kg/m3]
[1], 308.15 K, Pycnometric method	994.07 ± 6

O [water] + O=C[C@H](O)[C@@H](O)[C@H](O)[C@H](O)CO
[2]
Settings	speed of sound [m/s]	viscosity [mPa·s]
293.15 K	1483.6 ± 10	1.002 ± 0.1
298.15 K	–	0.8903 ± 0.089
303.15 K	1508.4 ± 10	0.7973 ± 0.08
308.15 K	–	0.719 ± 0.072
313.15 K	1526.8 ± 10	0.6526 ± 0.065
318.15 K	1533 ± 10	0.5972 ± 0.06

Settings	mass density [kg/m3]
[2], 308.15 K, Pycnometric method	994.07 ± 6
